# Measurements taken from ChEMBL document CHEMBL5154691, “Discovery of novel verinurad analogs as dual inhibitors of URAT1 and GLUT9 with improved Druggability for the treatment of hyperuricemia” (Eur J Med Chem, 2022).
# Columns and labels:
# [1] = molecular target: T1, Solute carrier family 22 member 12 (Homo sapiens, UniProt Q96S37); assay: Inhibition of URAT1 (unknown origin)-mediated 14C-uric acid uptake expressed in HEK293 cells using 14C-uric acid as substrate preincubated for 30 mins followed by substrate addition and measured after 15 mins by liquid scintillation counting analysis; format: cell-based
# T1 sequence (Q96S37 whole entry): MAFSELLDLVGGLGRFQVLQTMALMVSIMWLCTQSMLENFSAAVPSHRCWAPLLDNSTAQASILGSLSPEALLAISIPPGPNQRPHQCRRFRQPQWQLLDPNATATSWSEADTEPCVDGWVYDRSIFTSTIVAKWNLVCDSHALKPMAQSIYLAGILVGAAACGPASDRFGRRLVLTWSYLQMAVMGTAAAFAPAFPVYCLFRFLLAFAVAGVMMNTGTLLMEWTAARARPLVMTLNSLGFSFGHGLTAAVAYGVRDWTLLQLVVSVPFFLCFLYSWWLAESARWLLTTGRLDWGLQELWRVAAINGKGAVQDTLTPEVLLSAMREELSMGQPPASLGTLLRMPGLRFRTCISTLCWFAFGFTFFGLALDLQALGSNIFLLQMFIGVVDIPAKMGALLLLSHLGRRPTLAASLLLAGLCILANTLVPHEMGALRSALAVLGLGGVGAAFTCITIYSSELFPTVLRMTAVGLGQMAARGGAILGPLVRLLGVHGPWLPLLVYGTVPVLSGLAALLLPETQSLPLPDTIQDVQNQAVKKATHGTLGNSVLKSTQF
# [2] = molecular target: T2, Solute carrier family 22 member 6 (Homo sapiens, UniProt Q4U2R8); assay: Inhibition of OAT1 (unknown origin) expressed in HEK293 cells assessed as inhibition of 6-CFL uptake preincubated for 30 mins followed by incubation with 6-CFL and measured after 15 mins by fluorescence based analysis; format: toxicity, cell-based
# T2 sequence (Q4U2R8 whole entry): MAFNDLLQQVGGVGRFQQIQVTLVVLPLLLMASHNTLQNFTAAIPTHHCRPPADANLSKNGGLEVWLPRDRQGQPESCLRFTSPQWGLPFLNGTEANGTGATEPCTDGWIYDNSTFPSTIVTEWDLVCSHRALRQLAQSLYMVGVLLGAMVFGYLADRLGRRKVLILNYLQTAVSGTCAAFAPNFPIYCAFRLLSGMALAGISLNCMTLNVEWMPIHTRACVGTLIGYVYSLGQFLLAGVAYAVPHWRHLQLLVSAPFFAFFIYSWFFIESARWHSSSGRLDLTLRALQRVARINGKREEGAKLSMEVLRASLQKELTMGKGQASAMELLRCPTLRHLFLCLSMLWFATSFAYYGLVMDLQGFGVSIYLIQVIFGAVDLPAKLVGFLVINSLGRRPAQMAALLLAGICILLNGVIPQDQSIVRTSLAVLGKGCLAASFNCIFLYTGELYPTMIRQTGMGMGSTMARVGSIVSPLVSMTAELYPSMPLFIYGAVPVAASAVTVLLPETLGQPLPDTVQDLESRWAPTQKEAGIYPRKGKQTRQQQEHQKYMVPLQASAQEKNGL
# [3] = molecular target: T3, Broad substrate specificity ATP-binding cassette transporter ABCG2 (Homo sapiens, UniProt Q9UNQ0); assay: Inhibition of ABCG2 (unknown origin) expressed in HEK293 cells membrane vesicles assessed as inhibition of ATP-induced 14C-uric acid uptake preincubated for 15 mins followed by incubation with ATP and substrate for 5 mins by liquid scintillation counting analysis; format: toxicity, cell membranes, Membrane vesicle
# T3 sequence (Q9UNQ0 whole entry): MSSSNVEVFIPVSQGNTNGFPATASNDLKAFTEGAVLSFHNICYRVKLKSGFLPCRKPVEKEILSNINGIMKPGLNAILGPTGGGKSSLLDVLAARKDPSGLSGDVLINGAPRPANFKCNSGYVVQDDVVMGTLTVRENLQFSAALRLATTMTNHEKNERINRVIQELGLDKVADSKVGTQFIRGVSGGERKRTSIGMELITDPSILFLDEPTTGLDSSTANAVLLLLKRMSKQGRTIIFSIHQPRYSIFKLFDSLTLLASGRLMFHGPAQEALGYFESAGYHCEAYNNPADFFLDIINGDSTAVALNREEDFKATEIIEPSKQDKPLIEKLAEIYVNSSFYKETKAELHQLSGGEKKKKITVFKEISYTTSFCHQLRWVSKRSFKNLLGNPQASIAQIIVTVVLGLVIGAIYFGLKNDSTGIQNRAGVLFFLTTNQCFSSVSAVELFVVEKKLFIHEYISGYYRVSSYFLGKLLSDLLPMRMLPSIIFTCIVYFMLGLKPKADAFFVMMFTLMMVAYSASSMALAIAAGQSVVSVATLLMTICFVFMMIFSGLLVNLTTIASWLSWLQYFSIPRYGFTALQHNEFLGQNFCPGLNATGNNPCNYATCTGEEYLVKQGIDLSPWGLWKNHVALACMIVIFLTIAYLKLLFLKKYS
# [4] = molecular target: T4, Solute carrier family 2, facilitated glucose transporter member 9 (Homo sapiens) (UniProt Q9NRM0); assay: Inhibition of GLUT9 (unknown origin) expressed in HEK293T cells assessed as inhibition of uric acid-induced current at 10 uM by whole cell patch clamp technique; format: cell-based
# T4 sequence (whole entry): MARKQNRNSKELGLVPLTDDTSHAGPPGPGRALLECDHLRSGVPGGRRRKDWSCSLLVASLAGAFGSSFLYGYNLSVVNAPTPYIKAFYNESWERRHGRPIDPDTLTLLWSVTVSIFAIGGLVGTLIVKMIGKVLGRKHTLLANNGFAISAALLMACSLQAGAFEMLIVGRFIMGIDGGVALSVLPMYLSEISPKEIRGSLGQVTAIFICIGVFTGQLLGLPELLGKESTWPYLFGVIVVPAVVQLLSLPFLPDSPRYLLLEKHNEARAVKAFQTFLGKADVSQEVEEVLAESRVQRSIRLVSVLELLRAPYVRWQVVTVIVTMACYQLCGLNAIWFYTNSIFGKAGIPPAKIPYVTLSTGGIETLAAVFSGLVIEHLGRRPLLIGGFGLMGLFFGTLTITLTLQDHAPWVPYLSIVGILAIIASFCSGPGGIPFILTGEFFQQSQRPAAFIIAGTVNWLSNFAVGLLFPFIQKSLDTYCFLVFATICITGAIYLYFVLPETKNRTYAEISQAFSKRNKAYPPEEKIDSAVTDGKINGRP
# [5] = Half life in Sprague-Dawley rat at 5 mg/kg, iv measured upto 36 hrs by LC-MS/MS analysis; format: ADME, organism-based; conditions: in vivo
# [6] = Half life in Sprague-Dawley rat at 5 mg/kg, po measured upto 36 hrs by LC-MS/MS analysis; format: ADME, organism-based; conditions: in vivo
# [7] = Oral bioavailability in Sprague-Dawley rat at 5 mg/kg measured upto 36 hrs by LC-MS/MS analysis; format: ADME, organism-based; conditions: in vivo
# [8] = Cytotoxicity against human HK-2 cells assessed as reduction in cell viability incubated for 48 hrs by MTT assay; format: toxicity, cell-based
# [9] = Cytotoxicity against human HK-2 cells assessed as reduction in cell viability incubated for 24 hrs by MTT assay; format: toxicity, cell-based
# [10] = Inhibition of URAT1 F365Y mutant (unknown origin)-mediated 14C-uric acid uptake expressed in HEK293 cells using 14C-uric acid as substrate preincubated for 30 mins followed by substrate addition and measured after 15 mins by liquid scintillation counting analysis; format: cell-based; conditions: Homo sapiens
# [11] = Cmax in Sprague-Dawley rat at 5 mg/kg, iv measured upto 36 hrs by LC-MS/MS analysis; format: ADME, organism-based; set-up: time < 36 hrs, dose 5 mg/kg, route iv; conditions: in vivo
# [12] = Tmax in Sprague-Dawley rat at 5 mg/kg, iv measured upto 36 hrs by LC-MS/MS analysis; format: ADME, organism-based; conditions: in vivo
# [13] = Cmax in Sprague-Dawley rat at 5 mg/kg, po measured upto 36 hrs by LC-MS/MS analysis; format: ADME, organism-based; set-up: time < 36 hrs, dose 5 mg/kg, route po; conditions: in vivo
# [14] = MRT (0 to infinity) in Sprague-Dawley rat at 5 mg/kg, po by LC-MS/MS analysis; format: ADME, organism-based; conditions: in vivo
# [15] = Inhibition of URAT1 I481M mutant (unknown origin)-mediated 14C-uric acid uptake expressed in HEK293 cells using 14C-uric acid as substrate preincubated for 30 mins followed by substrate addition and measured after 15 mins by liquid scintillation counting analysis; format: cell-based; conditions: Homo sapiens
# [16] = Inhibition of URAT1 F358Y mutant (unknown origin)-mediated 14C-uric acid uptake expressed in HEK293 cells using 14C-uric acid as substrate preincubated for 30 mins followed by substrate addition and measured after 15 mins by liquid scintillation counting analysis; format: cell-based; conditions: Homo sapiens
# [17] = Inhibition of URAT1 R477K mutant (unknown origin)-mediated 14C-uric acid uptake expressed in HEK293 cells using 14C-uric acid as substrate preincubated for 30 mins followed by substrate addition and measured after 15 mins by liquid scintillation counting analysis; format: cell-based; conditions: Homo sapiens
# Mus musculus [18] = assay: Anti-hyperuricemic activity against xanthine and potassium oxonate-induced acute hyperuricemia Kunming mouse model assessed as serum uric acid concentration at 10 mg/kg, po measured after 3 hrs (reference value: 846.22 uM); format: functional
# [19] = Inhibition of URAT1 F241Y mutant (unknown origin)-mediated 14C-uric acid uptake expressed in HEK293 cells using 14C-uric acid as substrate preincubated for 30 mins followed by substrate addition and measured after 15 mins by liquid scintillation counting analysis; format: cell-based; conditions: Homo sapiens
# [20] = MRT (0 to infinity) in Sprague-Dawley rat at 5 mg/kg, iv by LC-MS/MS analysis; format: ADME, organism-based; conditions: in vivo
# [21] = Tmax in Sprague-Dawley rat at 5 mg/kg, po measured upto 36 hrs by LC-MS/MS analysis; format: ADME, organism-based; conditions: in vivo
# [22] = AUC (0 to infinity) in Sprague-Dawley rat at 5 mg/kg, po by LC-MS/MS analysis; format: ADME, organism-based; set-up: time infinity, dose 5 mg/kg, route po; conditions: in vivo
# [23] = Inhibition of URAT1 S35N mutant (unknown origin)-mediated 14C-uric acid uptake expressed in HEK293 cells using 14C-uric acid as substrate preincubated for 30 mins followed by substrate addition and measured after 15 mins by liquid scintillation counting analysis; format: cell-based; conditions: Homo sapiens
# [24] = Inhibition of URAT1 R487K mutant (unknown origin)-mediated 14C-uric acid uptake expressed in HEK293 cells using 14C-uric acid as substrate preincubated for 30 mins followed by substrate addition and measured after 15 mins by liquid scintillation counting analysis; format: cell-based; conditions: Homo sapiens
# Mus musculus [25] = assay: Anti-hyperuricemic activity against xanthine and potassium oxonate-induced acute hyperuricemia Kunming mouse model assessed as increase in urine uric acid concentration at 10 mg/kg, po measured for 24 hrs; format: functional
# [26] = AUC (0 to infinity) in Sprague-Dawley rat at 5 mg/kg, iv by LC-MS/MS analysis; format: ADME, organism-based; set-up: time infinity, dose 5 mg/kg, route iv; conditions: in vivo
compound,measurement,setting,value
N#Cc1ccc(Oc2cnccc2SCCCC(=O)O)c2ccccc12,IC50,[1],1.23 µM
same,IC50,[2],41.3 µM
same,IC50,[3],27.9 µM
same,inhibition,[4],15.2%
CC(C)(Sc1ccncc1-c1ccc(C#N)c2ccccc12)C(=O)[O-].[Na+],half-life,[5],3.49 h
same,half-life,[6],4.01 h
same,bioavailability,[7],21.5%
same,IC50 at 48 h,[8],109 µM
same,IC50 at 24 h,[9],197 µM
same,IC50,[10],5.01 µM
same,Cmax,[11],13400 ng/mL
same,Tmax,[12],5.4 min
same,Cmax,[13],7210 ng/mL
same,MRT inf,[14],4.05 h
same,IC50,[1],0.17 µM
same,IC50,[15],0.94 µM
same,IC50,[2],12.7 µM
same,IC50,[16],0.24 µM
same,IC50,[17],1.24 µM
same,Activity,Mus musculus [18],625.24 µM
same,IC50,[3],18.7 µM
same,IC50,[19],2.14 µM
same,MRT inf,[20],3.46 h
same,Tmax,[21],0.46 h
same,AUC(0-inf),[22],4130 ng·h/mL
same,IC50,[23],4.21 µM
same,IC50,[24],0.11 µM
same,Activity,Mus musculus [25],2371.02 µM
same,AUC(0-inf),[26],19700 ng·h/mL
COc1cc(C(=O)O)ccc1CSc1ccncc1N(C)c1ccc(C#N)c2ccccc12,IC50,[1],0.46 µM
same,IC50,[2],25.5 µM
same,IC50,[3],34.8 µM
same,inhibition,[4],23.1%
